# Results: article PMC8100298, “Histone deacetylase inhibitor resminostat in combination with sorafenib counteracts platelet-mediated pro-tumoral effects in hepatocellular carcinoma” (Scientific Reports, 2021)
# Where two headings read alike, the source gives them in different places.
# Assays:
# Format in all cases: cell-based
# [1] = system: HepG2; assay: Proliferation assay; details: for EC50: Homo sapiens, 96 h, 4 days
# Description: (§1) The cell lines HepG2 (ACC180, RRID:CVCL_0027; DMSZ, Braunschweig Germany), SNU-475 (CRL-2236, Lot. 58483227, RRID:CVCL_0497; ATCC, Manassas, Virginia, US), SNU-387 (CRL-2237, Lot. 58483192, RRID:CVCL_0250; ATCC, Virginia, US), PLC/PRF/5 (300315, Lot. 812, RRID:CVCL_0485; CLS Cell Lines Service GmbH, Eppelheim, Germany) and HuH-7 (JCRB0403, Lot. 2272008, RRID:CVCL_0336; JCRB Cell Bank, Japan) were propagated according to the distributor’s guidelines. The authenticity of the cell lines was confirmed by short tandem repeat (STR) analysis (DSMZ, Braunschweig, Germany). Mycoplasma contamination was ruled out by PCR testing. For assays with platelet lysate (PL), FBS was substituted with 10% PLTMax Human Platelet Lysate (Cat. Nr. SCM141, Lot Number VP1602259; Millipore, Burlington, Massachusetts, US). The PL was supplemented with 20 U/ml Heparin (Heparin sodium salt from porcine intestinal mucosa, H4784-250MG; Sigma-Aldrich, Taufkirchen, Germany) to prevent coagulation.
# (§2) Prior to the assay, the optimal seeding density was determined for each cell line to obtain an exponential growth during the experiment (2000 to 6000 cells per 96-well). Drug dilution series with 8 concentrations were prepared for EC50 determinations of single drugs. Three wells for each concentration were seeded (technical replicates). For drug combinations, dilution series of six concentrations for each drug alone or in combination at equal ratio were prepared. After 4 h of cell seeding, the drugs were added to the cells. Each 96-well plate contained a vehicle control (0.1% or 0.2% DMSO), a death control Ro 106-9920 (Tocris Cookson Ltd., Bristol, UK) a growth control (untreated cells compared to vehicle treated cells), and blank wells without cells. The proliferation assay was stopped after 4 days by crystal violet staining of the cells (0.5% in 20% methanol). Following extraction of the crystal violet with 8% acetic acid, the eluates were quantified photometrically at 570 nm and the reference wavelength 690 nm in an absorbance microplate reader (Tecan Sunrise; Tecan, Männedorf, Switzerland). Only readouts from 96-well plates with a Z-factor between 0.5 and 1.0 were used. Blank OD values were subtracted from the mean OD values. Nonlinear curve fitting and EC50 calculation was performed with Excel Solver.
# [2] = system: HuH-7; assay: Proliferation assay; details: for EC50: Homo sapiens, 96 h, 4 days
# Description: as §1, §2
# [3] = system: PLC/PRF/5; assay: Proliferation assay; details: for EC50: Homo sapiens, 96 h, 4 days
# Description: as §1, §2
# [4] = system: PLC/PRF/5 and SNU-475 cells; assay: ELISA for growth factors PDGF-AA, TGF and VEGF; details: tissue culture supernatants, with or without platelets (Fig. S4B)
# Procedure: A. The growth factors PDGF-AA, TGFβ and VEGF were determined from tissue culture supernatants by ELISA. PLC/PRF/5 and SNU-475 cells were cultured with increasing […]
# (1 picture or pasted object on this page, not shown here) […]
# amounts of platelets. In parallel, platelets were cultured without cells to determine if the growth factors were platelet derived.
# B. ELSIAs for PDGF-AA, TGFβ and VEGF were performed after drug treatment of PC/PRF/5 and SNU-475 cells. Cells were cultured as indicated with or without platelets and treated with resminostat, sorafenib, the drug combination or vehicle control 0.1% DMSO.
# Table S1_ EC50 cell line screen
# S1D. The cancer cell lines, their tissue origins and the respective EC50 values are shown.
# Each cell line was seeded in duplicates.
# [5] = system: 22RV1; assay: Efficacy screening assay; details: 22RV1, prostate
# Procedure: (§3) The experiment was performed by Oncolead GmbH & Co. KG (Karlsfeld , Germany), based on a standardized screening procedure . Cell lines were purchased directly from the ATCC, NCI and DSMZ cell line c ollections. Cells used for the study had undergone less than 20 passages. To ensure the absence of potential contamination and wrong assignment, all cell lines were tested using a whole genome assay (Agilent, USA). All cell lines were grown as recommended by the suppliers and with addition of 100 U/mL penicillin G and 100 µg/mL; streptomycin. Cell growth and treatments were performed in Nunclon D 96 -well plates (NUNC, Germany). The optimal seeding density for each cell line was determined to ensure exponential growth for the duration of the experiment. All cells growing without anti-cancer agents were sub-conﬂuent by the end of the treatment, as determined by visual inspection.
# (§4) After an initial 24 h pre-growth period, the compounds were added. The vehicle concentration […]
# (§5) was 0.1% DMSO. After incubation at 37°C for 72 h, the culture medium was aspirated, and the cells were precipitated by the addition of 10% trichloroacetic acid (Sigma-Aldrich, Missouri, US). After overnight incubation at 4°C, the plates were washed three times with deionized water. The precipitates were then stained with SRB (0.4% wt/v sulforhodamine B solution in 1% acetic acid, Sigma-Aldrich, Missouri, US). Afterwards, the plates were washed six times with 1% acetic acid to remove unbound stain. After drying the plates at room temperature, the bound SRB was solubilized with 10 mM Tris base and the optical density was measured at 520 nm using a Victor2 plate reader (Perkin Elmer, Germany). Blank OD values were subtracted from mean OD values for each concentration. The nonlinear curve ﬁtting and EC50 calculations were per formed using XLﬁt and algorithm “205” (ID Business […]
# (§6) one-way ANOVA and multiple comparison (Dunnett) was performed for compound treatments compared to vehicle control. The adjusted p-values with 95% confidence interval were reported as significant. For comparison of EC50 values in Figure 1F, one-way ANOVA with multiple comparison testing (Tukey) was performed. Multiplicity adjusted p -values for the EC50 with sorafenib versus resminostat for each cell line and comparison between cell lines for sorafenib are presented (95% confidence interval for significance testing). For comparison of EC50 data in Figure 2B, one-way ANOVA with multiple comparison testing (Tukey) was performed. Multiplicity adjusted p-values with 95% confidence interval was applied. For the invasion assays in Figure 4, one-way ANOVA with multiple comparison testing (Tukey) was performed. Multiplicity adjusted p-values with 95% confidence interval was applied. The adjusted p-values comparing vehicle control without vs. with platelets and compound
# [6] = system: ASPC1; assay: Efficacy screening assay; details: Homo sapiens, ASPC1, pancreas, 72 h
# Procedure: as §3, §4, §5, §6
smiles,measurement,setting,value
"CN(C)Cc1ccc(S(=O)(=O)n2ccc(/C=C/C(=O)NO)c2)cc1 [resminostat, Resminostat]",Ratio PL/FBS,"[1]; HepG2, ratio of PL/FBS EC50s",1.0
same,EC50,"[1]; HepG2, fetal bovine serum, read-out: EC50 in FBS",0.5 ± 0.1 µM
same,EC50,"[1]; HepG2, platelet lysate, read-out: EC50 in PL",0.5 ± 0.3 µM
same,EC50,"[2]; HuH-7, fetal bovine serum, read-out: EC50 in FBS",1 ± 0.3 µM
same,EC50,"[2]; HuH-7, platelet lysate, read-out: EC50 in PL",1.3 ± 0.2 µM
same,Ratio PL/FBS,"[2]; HuH-7, ratio of PL/FBS EC50s",1.3
same,EC50,"[3]; PLC/PRF/5, fetal bovine serum, read-out: EC50 in FBS",1.1 ± 0.2 µM
same,EC50,"[3]; PLC/PRF/5, platelet lysate, read-out: EC50 in PL",0.9 ± 0.1 µM
same,effect of platelet factors on potency and efficacy,"[3]; PLC/PRF/5, platelet lysate vs FBS dose-response curves (Fig. 2A)",unaffected
same,Ratio PL/FBS,"[3]; PLC/PRF/5, ratio of PL/FBS EC50s",0.8
same,growth factors released by platelets or secreted by HCC cells,[4],not consistantly affected
same,EC50,"[5]; 72 h, read-out: EC50",1.45 µM
same,EC50,"[5]; Homo sapiens, 22Rv1, 72 h, log of EC50, negative, read-out: log(EC50) (converted)",1.45 µM
same,EC50,"[5]; Homo sapiens, 22Rv1, 72 h, read-out: EC50",1.45 µM
same,EC50,"[6]; log of EC50, negative, read-out: log(EC50) (converted)",1.66 µM
same,EC50,[6]; read-out: EC50,1.65 µM
